One experiment has as its target T1, PfENT1 F394L (Plasmodium falciparum, UniProt Q8IDM6, F394L).
T1 sequence (Q8IDM6 1-422 F394L): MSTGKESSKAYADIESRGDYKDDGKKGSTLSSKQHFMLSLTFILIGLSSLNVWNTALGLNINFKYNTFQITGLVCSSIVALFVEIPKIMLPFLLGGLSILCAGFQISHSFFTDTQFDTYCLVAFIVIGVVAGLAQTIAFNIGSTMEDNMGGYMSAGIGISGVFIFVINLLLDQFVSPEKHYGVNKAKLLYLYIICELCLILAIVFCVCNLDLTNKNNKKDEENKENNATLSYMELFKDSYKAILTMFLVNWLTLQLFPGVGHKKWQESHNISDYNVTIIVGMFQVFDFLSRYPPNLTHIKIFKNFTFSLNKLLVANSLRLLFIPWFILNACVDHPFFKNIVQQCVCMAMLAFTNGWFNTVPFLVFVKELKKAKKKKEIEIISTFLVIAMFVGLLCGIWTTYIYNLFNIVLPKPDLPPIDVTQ
Nature of the experiment: [3H]uridine uptake inhibition by purines in PfENT1-SNP-expressing yeast. The class given is cell-based.

A further experiment concerns the target T2, WT PfENT1 (Plasmodium falciparum, UniProt Q8IDM6).
T2 sequence (Q8IDM6 1-422): T1 sequence (Q8IDM6 1-422 F394L) with L394F
Nature of the experiment: [3H]uridine uptake inhibition by purines in PfENT1-expressing yeast. The class given is cell-based.

Where a chain is given by its changes, count along the chain named.

`OC[C@H]1O[C@@H](n2cnc3c(O)ncnc32)[C@H](O)[C@@H]1O` [Inosine, inosine]: the IC50 against PfENT1 F394L turned out to be 94 ± 29 µM; against WT PfENT1 it was 20 ± 7 µM.
The matching figures for `Nc1ncnc2nc[nH]c12` [Adenine, adenine]: 1500 ± 227 µM and 475 ± 124 µM.
Take `O=c1[nH]cnc2nc[nH]c12` [Hypoxanthine, hypoxanthine]: the IC50 was determined as 837 ± 93 µM against PfENT1 F394L and 178 ± 44 µM against WT PfENT1.

Usually IC50 stands for the concentration needed to halve the response being measured.

Source of the values: PMC9218960 (ACS infectious diseases, 2020).
